Laboratory results taken from paper PMC11100015, “Bioluminescence Imaging of Potassium Ion Using a Sensory Luciferin and an Engineered Luciferase” (Journal of the American Chemical Society, 2024).

Molecular target: T1, BREP (Oplophorus gracilirostris, UniProt Q9GV45, A31E/Q38R/Q45L/D46S/L54V/A60N/K70R/V71I/A81I/F95D/L99Q/M102K/D112N/I117V/P142E/Q151K/Y165I/C191H/N193R)
T1 construct: fusion of mScarlet-I and teLuc (NanoLuc variant) via three-residue linker; recombinant, pBAD/His B, purified; with mScarlet-I red fluorescent protein (engineered RFP, RET acceptor)
Assay: bioluminescence emission spectra
Type: biochemical
Conditions: MOPS pH 7.4; 25 uM potassiorin, 100 nM enzyme

T1 sequence (Q9GV45 28-196 with the stated changes): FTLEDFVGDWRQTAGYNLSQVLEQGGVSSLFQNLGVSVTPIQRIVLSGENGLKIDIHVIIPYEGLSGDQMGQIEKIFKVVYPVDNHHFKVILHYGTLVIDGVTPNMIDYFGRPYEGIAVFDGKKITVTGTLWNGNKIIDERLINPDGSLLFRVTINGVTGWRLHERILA

## O=c1c(Cc2ccc(OCCn3cc(-c4ccc(N5CCOCCOCCOCCOCCOCC5)cc4)nn3)cc2)nc2c(-c3ccccc3)[nH]c(-c3ccccc3)cn1-2 [compound 13, potassiorin]
  bioluminescence emission spectra: We measured the emission spectra of BREP and potassiorin in the absence and presence
